Data published in PubChem BioAssay (NCI).
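In this assay, cells in 96-well plates receive the compound at five concentrations for 48 hours. Endpoints are linearly interpolated between the surrounding concentrations. GI50 is the concentration that inhibits growth by half. At the TGI there is no net growth.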

Assays:
Experiment in all cases: NCI-60 cell line screen, 48 h
786-0 renal = system: 786-0 renal
A498 renal = system: A498 renal
A549 NSCLC = system: A549 NSCLC
ACHN renal = system: ACHN renal
BT-549 breast = system: BT-549 breast
CAKI-1 renal = system: CAKI-1 renal
CCRF-CEM leukemia = system: CCRF-CEM leukemia
COLO 205 colon = system: COLO 205 colon
DU-145 prostate = system: DU-145 prostate
EKVX NSCLC = system: EKVX NSCLC
HCC-2998 colon = system: HCC-2998 colon
HCT-116 colon = system: HCT-116 colon
HCT-15 colon = system: HCT-15 colon
HL-60(TB) leukemia = system: HL-60(TB) leukemia
HOP-62 NSCLC = system: HOP-62 NSCLC
HOP-92 NSCLC = system: HOP-92 NSCLC
HS 578T breast = system: HS 578T breast
HT29 colon = system: HT29 colon
IGROV1 ovarian = system: IGROV1 ovarian
K-562 leukemia = system: K-562 leukemia
KM12 colon = system: KM12 colon
LOX IMVI melanoma = system: LOX IMVI melanoma
M14 melanoma = system: M14 melanoma
MALME-3M melanoma = system: MALME-3M melanoma
MCF7 breast = system: MCF7 breast
MDA-MB-231 breast = system: MDA-MB-231 breast
MDA-MB-435 = system: MDA-MB-435
MDA-MB-468 breast = system: MDA-MB-468 breast
MOLT-4 leukemia = system: MOLT-4 leukemia
NCI-H226 lung = system: NCI-H226 lung
NCI-H23 lung = system: NCI-H23 lung
NCI-H460 lung = system: NCI-H460 lung
NCI-H522 lung = system: NCI-H522 lung
OVCAR-3 ovarian = system: OVCAR-3 ovarian
OVCAR-4 ovarian = system: OVCAR-4 ovarian
OVCAR-5 ovarian = system: OVCAR-5 ovarian
OVCAR-8 ovarian = system: OVCAR-8 ovarian
PC-3 prostate = system: PC-3 prostate
RPMI-8226 leukemia = system: RPMI-8226 leukemia
RXF 393 renal = system: RXF 393 renal
SF-268 CNS = system: SF-268 CNS
SF-295 CNS = system: SF-295 CNS
SF-539 CNS = system: SF-539 CNS
SK-MEL-2 melanoma = system: SK-MEL-2 melanoma
SK-MEL-28 melanoma = system: SK-MEL-28 melanoma
SK-MEL-5 melanoma = system: SK-MEL-5 melanoma
SK-OV-3 ovarian = system: SK-OV-3 ovarian
SN12C renal = system: SN12C renal
SNB-19 CNS = system: SNB-19 CNS
SNB-75 CNS = system: SNB-75 CNS
SR leukemia = system: SR leukemia
SW-620 colon = system: SW-620 colon
T-47D breast = system: T-47D breast
TK-10 renal = system: TK-10 renal
U251 CNS = system: U251 CNS
UACC-257 melanoma = system: UACC-257 melanoma
UACC-62 melanoma = system: UACC-62 melanoma
UO-31 renal = system: UO-31 renal

## C[C@H](Nc1nc(NCCc2ccccc2)nc2ccccc12)c1ccccc1
786-0 renal
  GI50: 1480 nM
  TGI: 2840 nM
A498 renal
  GI50: 1450 nM
  TGI: 3370 nM
A549 NSCLC
  GI50: 1760 nM
  TGI: 6180 nM
ACHN renal
  GI50: 1720 nM
  TGI: 3810 nM
BT-549 breast
  GI50: 1330 nM
  TGI: 2640 nM
CAKI-1 renal
  GI50: 1360 nM
  TGI: 2730 nM
CCRF-CEM leukemia
  GI50: 1950 nM
  TGI: 7660 nM
COLO 205 colon
  GI50: 1150 nM
  TGI: 2430 nM
DU-145 prostate
  GI50: 2480 nM
  TGI: 6950 nM
EKVX NSCLC
  GI50: 1420 nM
  TGI: 3210 nM
HCC-2998 colon
  GI50: 1400 nM
  TGI: 2700 nM
HCT-116 colon
  GI50: 1260 nM
  TGI: 2510 nM
HCT-15 colon
  GI50: 1420 nM
  TGI: 2900 nM
HL-60(TB) leukemia
  GI50: 1400 nM
  TGI: 3980 nM
HOP-62 NSCLC
  GI50: 1520 nM
  TGI: 2930 nM
HOP-92 NSCLC
  GI50: 1080 nM
  TGI: 2470 nM
HS 578T breast
  GI50: 1450 nM
  TGI: 3460 nM
HT29 colon
  GI50: 1260 nM
  TGI: 2960 nM
IGROV1 ovarian
  GI50: 1550 nM
  TGI: 3260 nM
K-562 leukemia
  GI50: 1040 nM
  TGI: 3620 nM
KM12 colon
  GI50: 1780 nM
  TGI: 3730 nM
LOX IMVI melanoma
  GI50: 1590 nM
  TGI: 3010 nM
M14 melanoma
  GI50: 1530 nM
  TGI: 2920 nM
MALME-3M melanoma
  GI50: 1400 nM
  TGI: 2780 nM
MCF7 breast
  GI50: 1470 nM
  TGI: 2990 nM
MDA-MB-231 breast
  GI50: 1680 nM
  TGI: 3100 nM
MDA-MB-435
  GI50: 1370 nM
  TGI: 2730 nM
MDA-MB-468 breast
  GI50: 1130 nM
  TGI: 2450 nM
MOLT-4 leukemia
  GI50: 1500 nM
  TGI: 3640 nM
NCI-H226 lung
  GI50: 1450 nM
  TGI: 3040 nM
NCI-H23 lung
  GI50: 1440 nM
  TGI: 2900 nM
NCI-H460 lung
  GI50: 1350 nM
  TGI: 2830 nM
NCI-H522 lung
  GI50: 1500 nM
  TGI: 3090 nM
OVCAR-3 ovarian
  GI50: 1340 nM
  TGI: 2980 nM
OVCAR-4 ovarian
  GI50: 1680 nM
  TGI: 5900 nM
OVCAR-5 ovarian
  GI50: 1630 nM
  TGI: 3420 nM
OVCAR-8 ovarian
  GI50: 1400 nM
  TGI: 2820 nM
PC-3 prostate
  GI50: 1370 nM
  TGI: 3270 nM
RPMI-8226 leukemia
  GI50: 1400 nM
  TGI: 4170 nM
RXF 393 renal
  GI50: 1070 nM
  TGI: 2310 nM
SF-268 CNS
  GI50: 2070 nM
  TGI: 6310 nM
SF-295 CNS
  GI50: 1460 nM
  TGI: 2790 nM
SF-539 CNS
  GI50: 1700 nM
  TGI: 3130 nM
SK-MEL-2 melanoma
  GI50: 1370 nM
  TGI: 2710 nM
SK-MEL-28 melanoma
  GI50: 1470 nM
  TGI: 2800 nM
SK-MEL-5 melanoma
  GI50: 1370 nM
  TGI: 2660 nM
SK-OV-3 ovarian
  GI50: 1560 nM
  TGI: 3000 nM
SN12C renal
  GI50: 1760 nM
  TGI: 4130 nM
SNB-19 CNS
  GI50: 2020 nM
  TGI: 5560 nM
SNB-75 CNS
  GI50: 563 nM
  TGI: 3490 nM
SR leukemia
  GI50: 1460 nM
  TGI: 3510 nM
SW-620 colon
  GI50: 1400 nM
  TGI: 2880 nM
T-47D breast
  GI50: 1420 nM
  TGI: 3660 nM
TK-10 renal
  GI50: 1930 nM
  TGI: 5440 nM
U251 CNS
  GI50: 1440 nM
  TGI: 2830 nM
UACC-257 melanoma
  GI50: 1520 nM
  TGI: 3040 nM
UACC-62 melanoma
  GI50: 1530 nM
  TGI: 2900 nM
UO-31 renal
  GI50: 1220 nM
  TGI: 2530 nM
